Where two headings read alike, the source gives them in different places.
What was measured:
FLT3 = target: T1, FLT3 (Homo sapiens, UniProt P36888); assay: Competition binding assay, FLT3 Kd; conditions: competition binding
T1 construct: made in house
T1 sequence (P36888 27-993): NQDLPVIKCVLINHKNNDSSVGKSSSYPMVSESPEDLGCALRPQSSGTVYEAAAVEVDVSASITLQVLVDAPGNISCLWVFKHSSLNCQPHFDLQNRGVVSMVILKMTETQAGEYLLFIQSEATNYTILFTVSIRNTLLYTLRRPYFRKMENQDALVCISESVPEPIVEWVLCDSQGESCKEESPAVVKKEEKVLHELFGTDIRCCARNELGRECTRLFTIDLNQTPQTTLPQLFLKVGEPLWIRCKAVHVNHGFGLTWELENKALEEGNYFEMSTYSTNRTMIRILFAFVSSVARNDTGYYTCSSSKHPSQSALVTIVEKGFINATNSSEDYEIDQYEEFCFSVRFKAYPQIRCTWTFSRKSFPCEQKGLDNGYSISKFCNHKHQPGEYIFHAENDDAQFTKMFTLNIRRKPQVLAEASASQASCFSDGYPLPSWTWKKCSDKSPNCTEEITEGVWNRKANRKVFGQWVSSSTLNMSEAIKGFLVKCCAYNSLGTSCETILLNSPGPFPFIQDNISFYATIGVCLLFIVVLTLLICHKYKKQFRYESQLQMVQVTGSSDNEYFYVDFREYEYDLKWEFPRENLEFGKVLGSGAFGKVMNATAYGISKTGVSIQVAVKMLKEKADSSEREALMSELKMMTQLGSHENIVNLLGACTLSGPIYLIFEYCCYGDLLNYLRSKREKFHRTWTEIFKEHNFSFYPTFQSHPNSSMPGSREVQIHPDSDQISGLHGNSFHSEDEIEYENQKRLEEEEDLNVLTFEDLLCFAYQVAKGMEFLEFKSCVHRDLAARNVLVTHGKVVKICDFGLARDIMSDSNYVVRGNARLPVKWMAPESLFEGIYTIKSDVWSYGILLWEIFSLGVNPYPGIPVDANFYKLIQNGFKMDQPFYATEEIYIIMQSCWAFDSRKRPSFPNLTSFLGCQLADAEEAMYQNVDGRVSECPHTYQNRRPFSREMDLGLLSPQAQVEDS
In short: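 Kinases as T7-phage fusions or HEK-293-expressed DNA-tagged constructs competed against immobilized biotinylated ligand on streptavidin beads, 1 h at room temperature in binding buffer. Bound kinase eluted and quantified by qPCR; Kd from eleven-point threefold dilution series.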

M-NFS-60 cells = assay: M-NFS-60 cell proliferation assay (Alamar Blue); format: cell-based, mouse; conditions: M-NFS-60 cell proliferation, read-out: CSF1R M-NFS-60 CTB:IC50
In short: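 Mouse M-NFS-60 cells growing on 20 ng/mL M-CSF in RPMI/10% FBS were exposed to compounds (9 half-log concentrations, 0.5% DMSO) for 72 h at 37 °C. Viability read by Alamar Blue fluorescence (ex 560/em 590 nm, 3 h). IC50 = 50% proliferation inhibition versus control, mean of duplicates.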

| SMILES | Kd (FLT3) | IC50 (M-NFS-60 cells) | IC50 (M-NFS-60 cells; Mus musculus) |
| --- | --- | --- | --- |
| O[C@H]1CCCC[C@H]1Nc1nc2ccc(Cn3cnc4cc(F)cnc43)cc2s1 [Example 162, (1S,2R)-2-((6-((6-fluoro-3H-imidazo[4,5-b]pyridin-3-yl)methyl)benzo[d]thiazol-2-yl)amino)cyclohexanol] | 1 to 5 µM | 0.05 to 0.4 µM |  |
| O[C@H]1CC[C@H](Nc2nc3ccc(Cn4cnc5cc(F)cnc54)cc3s2)CC1 [Example 163, trans-4-((6-((6-fluoro-3H-imidazo[4,5-b]pyridin-3-yl)methyl)benzo[d]thiazol-2-yl)amino)cyclohexanol] | > 5 µM |  | > 1.5 µM |
| O[C@@H]1CCCC[C@H]1Nc1nc2ccc(Cn3cnc4cccnc43)c(F)c2s1 [Example 164, (1R,2R)-2-((6-((3H-imidazo[4,5-b]pyridin-3-yl)methyl)-7-fluorobenzo[d]thiazol-2-yl)amino)cyclohexanol] | 1 to 5 µM |  | 0.4 to 1.5 µM |
| COc1ccc2ncc(Cc3ccc4nc(N[C@@H]5CCCC[C@H]5O)sc4c3)n2c1 [Example 165, (1R,2R)-2-((6-((6-methoxyimidazo[1,2-a]pyridin-3-yl)methyl)benzo[d]thiazol-2-yl)amino)cyclohexanol] | > 5 µM |  | 0.4 to 1.5 µM |
| O[C@@H]1CCCC[C@H]1Nc1nc2c(Br)cc(Cn3cnc4cccnc43)cc2s1 [Example 166, (1R,2R)-2-((6-((3H-imidazo[4,5-b]pyridin-3-yl)methyl)-4-bromobenzo[d]thiazol-2-yl)amino)cyclohexanol] | 0.2 to 1 µM |  | 0.4 to 1.5 µM |
| O[C@@H]1CCCC[C@H]1Nc1nc2ccc(Cc3cnc4cc(-n5cccn5)ccn34)cc2s1 [Example 167, (1R,2R)-2-((6-((7-(1H-pyrazol-1-yl)imidazo[1,2-a]pyridin-3-yl)methyl)benzo[d]thiazol-2-yl)amino)cyclohexanol] | 1 to 5 µM |  | ≤ 0.05 µM |
| O[C@@H]1CCCC[C@H]1Nc1nc2c(F)cc(Cn3cnc4cccnc43)c(F)c2s1 [Example 168, (1R,2R)-2-((6-((3H-imidazo[4,5-b]pyridin-3-yl)methyl)-4,7-difluorobenzo[d]thiazol-2-yl)amino)cyclohexanol] | 1 to 5 µM |  | 0.4 to 1.5 µM |
| O[C@@H]1CCCC[C@H]1Nc1nc2ccc(Cc3cnc4cc(-n5cncn5)ccn34)cc2s1 [Example 169, (1R,2R)-2-((6-((7-(1H-1,2,4-triazol-1-yl)imidazo[1,2-a]pyridin-3-yl)methyl)benzo[d]thiazol-2-yl)amino)cyclohexanol] | 1 to 5 µM |  | 0.05 to 0.4 µM |
| N#Cc1ccc2c(c1)ncn2Cc1ccc2nc(N[C@@H]3CCCC[C@H]3O)oc2c1 [Example 170, 1-((2-(((1R,2R)-2-hydroxycyclohexyl)amino)benzo[d]oxazol-6-yl)methyl)-1H-benzo[d]imidazole-5-carbonitrile] | > 5 µM |  | > 1.5 µM |
| O[C@@H]1CCCC[C@H]1Nc1nc2ccc(Cn3cnc4cc(OCCN5CCOCC5)ccc43)cc2s1 [Example 171, (1R,2R)-2-((6-((5-(2-morpholinoethoxy)-1H-benzo[d]imidazol-1-yl)methyl)benzo[d]thiazol-2-yl)amino)cyclohexanol] | 0.2 to 1 µM |  | 0.05 to 0.4 µM |
| OCCOc1ccc2c(c1)ncn2Cc1ccc2nc(N[C@@H]3CCCC[C@H]3O)sc2c1 [Example 172, (1R,2R)-2-((6-((5-(2-hydroxyethoxy)-1H-benzo[d]imidazol-1-yl)methyl)benzo[d]thiazol-2-yl)amino)cyclohexanol] | 0.2 to 1 µM |  | 0.05 to 0.4 µM |
| CNC(=O)c1ccc2c(c1)ncn2Cc1ccc2nc(N[C@@H]3CCCC[C@H]3O)sc2c1 [Example 173, 1-((2-(((1R,2R)-2-hydroxycyclohexyl)amino)benzo[d]thiazol-6-yl)methyl)-N-methyl-1H-benzo[d]imidazole-5-carboxamide] | 0.2 to 1 µM |  | 0.05 to 0.4 µM |
| C=C(c1ccc2c(c1)ncn2Cc1ccc2nc(N[C@@H]3CCCC[C@H]3O)sc2c1)C(F)(F)F [Example 175, (1R,2R)-2-((6-((5-(3,3,3-trifluoroprop-1-en-2-yl)-1H-benzo[d]imidazol-1-yl)methyl)benzo[d]thiazol-2-yl)amino)cyclohexanol] | 0.2 to 1 µM |  | 0.05 to 0.4 µM |
| Fc1cnc2c(c1)ncn2Cc1ccc2nc(N[C@H]3C=CCCC3)sc2c1 [Example 176, (R)—N-(cyclohex-2-en-1-yl)-6-((6-fluoro-3H-imidazo[4,5-b]pyridin-3-yl)methyl)benzo[d]thiazol-2-amine] | 1 to 5 µM |  | 0.4 to 1.5 µM |
| N#Cc1ccc2ncc(Cc3ccc4nc(N[C@@H]5CCCC[C@H]5O)sc4c3)n2n1 [Example 221, 3-((2-(((1R,2R)-2-hydroxycyclohexyl)amino)benzo[d]thiazol-6-yl)methyl)imidazo[1,2-b]pyridazine-6-carbonitrile] | ≤ 0.2 µM |  | ≤ 0.05 µM |
| O=c1c(N2CCOCC2)nccn1Cc1ccc2nc(N[C@@H]3CCCC[C@H]3O)sc2c1 [Example 222, 1-((2-(((1R,2R)-2-hydroxycyclohexyl)amino)benzo[d]thiazol-6-yl)methyl)-3-morpholinopyrazin-2(1H)-one] | > 5 µM |  | > 1.5 µM |
| O=C(c1ccn2c(Cc3ccc4nc(N[C@@H]5CCCC[C@H]5O)sc4c3)cnc2c1)N1CCCC1 [Example 223, (3-((2-(((1R,2R)-2-hydroxycyclohexyl)amino)benzo[d]thiazol-6-yl)methyl)imidazo[1,2-a]pyridin-7-yl)(pyrrolidin-1-yl)methanone] | 1 to 5 µM |  | 0.05 to 0.4 µM |
| O=C(O)/C=C/c1ccc2c(c1)ncn2Cc1ccc2nc(N[C@@H]3CCCC[C@H]3O)sc2c1 [Example 224, (E)-3-(1-((2-(((1R,2R)-2-hydroxycyclohexyl)amino)benzo[d]thiazol-6-yl)methyl)-1H-benzo[d]imidazol-5-yl)acrylic acid] | 0.2 to 1 µM |  | > 1.5 µM |
| O[C@@H]1CCCC[C@H]1Nc1nc2ccc(Cn3cnc4cc(-n5ccnc5)ccc43)cc2s1 [Example 226, (1R,2R)-2-((6-((5-(1H-imidazol-1-yl)-1H-benzo[d]imidazol-1-yl)methyl)benzo[d]thiazol-2-yl)amino)cyclohexanol] | 0.2 to 1 µM |  | ≤ 0.05 µM |
| Cn1nnc(-c2ccc3c(c2)ncn3Cc2ccc3nc(N[C@@H]4CCCC[C@H]4O)sc3c2)n1 [Example 227, (1R,2R)-2-((6-((5-(2-methyl-2H-tetrazol-5-yl)-1H-benzo[d]imidazol-1-yl)methyl)benzo[d]thiazol-2-yl)amino)cyclohexanol] | 1 to 5 µM |  | ≤ 0.05 µM |
| O[C@H]1[C@@H](O)CCC[C@H]1Nc1nc2ccc(Cn3cnc4cc(F)cnc43)cc2s1 [Example 228, (1S,2R,3R)-3-((6-((6-fluoro-3H-imidazo[4,5-b]pyridin-3-yl)methyl)benzo[d]thiazol-2-yl)amino)cyclohexane-1,2-diol] | > 5 µM |  | > 1.5 µM |
| O[C@@H]1[C@H](O)CCC[C@H]1Nc1nc2ccc(Cc3cnc4cc(-n5cccn5)ccn34)cc2s1 [Example 229, (1R,2S,3R)-3-((6-((7-(1H-pyrazol-1-yl)imidazo[1,2-a]pyridin-3-yl)methyl)benzo[d]thiazol-2-yl)amino)cyclohexane-1,2-diol] | 0.2 to 1 µM |  | 0.05 to 0.4 µM |
| O[C@@H]1[C@H](O)CCC[C@H]1Nc1nc2ccc(Cc3cnc4cc(-n5nccn5)ccn34)cc2s1 [Example 231, (1R,2S,3R)-3-((6-((7-(2H-1,2,3-triazol-2-yl)imidazo[1,2-a]pyridin-3-yl)methyl)benzo[d]thiazol-2-yl)amino)cyclohexane-1,2-diol] | 1 to 5 µM |  | ≤ 0.05 µM |
| C=Cc1ccc2c(c1)ncn2Cc1ccc2nc(N[C@@H]3CCC[C@@H](O)[C@H]3O)sc2c1 [Example 232, (1R,2S,3R)-3-((6-((5-vinyl-1H-benzo[d]imidazol-1-yl)methyl)benzo[d]thiazol-2-yl)amino)cyclohexane-1,2-diol] | ≤ 0.2 µM |  | ≤ 0.05 µM |
| O[C@@H]1[C@H](O)CCC[C@H]1Nc1nc2ccc(Cn3cnc4cc(OC5COC5)ccc43)cc2s1 [Example 233, (1R,2S,3R)-3-((6-((5-(oxetan-3-yloxy)-1H-benzo[d]imidazol-1-yl)methyl)benzo[d]thiazol-2-yl)amino)cyclohexane-1,2-diol] | 0.2 to 1 µM |  | 0.05 to 0.4 µM |
